Key:
[1] = tested on: indomethacin-induced antral damage; assay: indomethacin-induced gastric antral lesions in the re-fed rat (Method 2); assay type: in vivo; settings: for % Protection: single dose 30 minutes before indomethacin (60 mg/kg s.c.)
From the text: An experimental model in which atypical beta-adrenoceptor agonists may be shown to be of use in the treatment of gastrointestinal disorders is described below as Method 2. The procedure is based upon that described by H. Satoh et. al., Gastroenterology, 81, 719-725 (1981) in which the effect of compounds on indomethacin-induced gastric antral lesions in the re-fed rat is investigated. Indomethacin is an example of the class of compound known as non-steroidal anti-inflammatory drugs (NSAIDs), the use of which is frequently associated with gastrointestinal ulcers.
Food (but not water) is withheld from female random hooded rats (70-120 g) for 24 hours and then the rats are re-fed with Rat and Mouse No. 1 Maintenance Diet. After 1 hour of access to food, the rats are dosed orally with either the test compound or solvent (0.5% w/v methyl cellulose in water). 30 minutes later, indomethacin (60 mg/kg; dissolved in 1% w/v NaHCO3 in saline) is administered as a single subcutaneous injection at the back of the neck. Subsequently, the rats are allowed food, but water is withheld, and the animals are humanely killed by cervical dislocation at 6 hours post dose. Control animals received a single subcutaneous dose of the appropriate solvent.
The rat's stomach is removed (with a small amount of duodenum attached), opened along the greater curvature and the contents removed by washing with 0.9% w/v sodium chloride solution (saline). The opened stomach is pinned out (mucosal surface uppermost) on a polystyrene mat and the area of damage assessed by placing a grid (composed of 1 mm squares) over the antral region. Antral damage appears as discrete black or dark brown ulcers. The total area of antral damage is then expressed as a percentage of the total surface area of the antrum.
The protective effect of the test compound on indomethacin-induced antral damage is calculated as a percentage using the following equation: [formula]

[2] = tested on: indomethacin-induced ulceration of the small intestine; assay: indomethacin-induced ulceration of the small intestine in the rat (Method 3); assay type: in vivo; settings: single dose 30 minutes before indomethacin (15 mg/kg p.o.)
Procedure: Another experimental model in which atypical beta-adrenocopter agonists may be shown to be of use in the treatment of gastrointestinal disorders is described below as Method 3. This is a model of indomethacin-induced ulceration of the small intestine in the rat.
Female random hooded rats (100-150 g) are allowed free access to food and water. The rats are dosed orally with either the test compound (1 ml per 100 g of an appropriated dose) or solvent (0.5% w/v methyl cellulose in water). 30 minutes later, indomethacin (15 mg/kg) is administered orally using a dose volume of 1 ml per 100 g of a 1.5 mg/ml solution of indomethacin in 1% w/v NaHCO3. The animals are humanely killed by cervical dislocation at 48 hours post dose.
The rat's small intestine is removed, opened along its length and the contents removed by washing with 0.9% w/v sodium chloride solution (saline). The opened small intestine is pinned out (mucosal surface uppermost) on a polystyrene mat and the area of damage assessed by placing a grid (composed of 1 mm squares) over the preparation. The number of visible ulcers (appearing as discrete black or brown lesions) running the length of the small intestine is counted. The protective effect of the test compound is calculated as a percentage using the following equation: [formula]

[3] = tested on: piroxicam-induced antral damage; assay type: in vivo, rat
[4] = inhibition of indomethacin-induced antral ulceration in rat
[5] = 0.5 mg/kg p.o., single dose 30 minutes before NSAID

COC(=O)COc1ccc(C[C@H](C)NC[C@H](O)c2cccc(Cl)c2)cc1 [(R,S)-N-[2-(4-carbomethoxymethoxyphenyl)-1-methylethyl]-2-hydroxy-2-(3-chlorophenyl)ethanamine]
Maximum Inhibition (dose; mg/kg p.o.) ([1]; dose 3 mg/kg p.o.): 93% (3)
ED50 [1, 4]: 0.2 mg/kg p.o.

COC(=O)COc1ccc(CC(C)NCC(O)c2cccc(Cl)c2)cc1 (stereo not shown) [BRL 35135, N-[2-(4-carbomethoxymethoxyphenyl)-1-methylethyl]-2-hydroxy-2-(3-chlorophenyl)ethanamine]
% inhibition ([2]; 0.05 mg/kg p.o.): 24 ± 15%
% inhibition ([2]; 0.1 mg/kg p.o.): 35 ± 7%
% inhibition ([2]; 0.5 mg/kg p.o.): 76 ± 3%
% inhibition ([2]; 2.5 mg/kg p.o.): 85 ± 3%
% inhibition ([2]; 10 mg/kg p.o.): 80 ± 3%
% Protection ([1]; 20 μg/kg p.o.): 40%
% Protection ([1]; 50 μg/kg p.o.): 48%
% Protection ([1]; 100 μg/kg p.o.): 88%
% Protection ([1]; 500 μg/kg p.o.): 97%
ED50 ([1]; gastro-protection against indomethacin-induced antral damage, rat): approximately 50 μg/kg p.o.

C[C@@H](Cc1ccc(OCC(=O)O)cc1)NC[C@H](O)c1cccc(Cl)c1 [(R,S)-N-[2-(4-carboxymethoxyphenyl)-1-methylethyl]-2-hydroxy-2-(3-chlorophenyl)ethanamine]
Maximum Inhibition (dose; mg/kg p.o.) ([1]; dose 3 mg/kg p.o.): 77% (3)
ED50 [1, 4]: 0.3 mg/kg p.o.

C[C@H](Cc1ccc2c(c1)OC(C(=O)O)(C(=O)O)O2)NC[C@H](O)c1cccc(Cl)c1 [CL 316243, (R,R)-5-(2-((2-(3-chlorophenyl)-2-hydroxyethyl)amino)propyl)-1,3-benzodioxole-2,2-dicarboxylic acid]
% inhibition ([2]; 10 mg/kg p.o.): 93 ± 4%
% inhibition of indomethacin-induced damage [1, 5]: 83%
Maximum Inhibition (dose; mg/kg p.o.) ([1]; dose 1 mg/kg p.o.): 96% (1)
ED50 [1, 4]: 0.03 mg/kg p.o.
% inhibition of piroxicam-induced damage [3, 5]: 96%

COC(=O)COc1ccc(C[C@@H](C)NC[C@H](O)c2cccc(Cl)c2)cc1 [(R,R)-N-[2-(4-carbomethoxymethoxyphenyl)-1-methylethyl]-2-hydroxy-2-(3-chlorophenyl)ethanamine]
Maximum Inhibition (dose; mg/kg p.o.) ([1]; dose 3 mg/kg p.o.): 100% (3)
ED50 [1, 4]: 0.02 mg/kg p.o.

C[C@H](Cc1ccc(OCC(=O)O)cc1)NC[C@H](O)c1cccc(Cl)c1 [(R,R)-N-[2-(4-carboxymethoxyphenyl)-1-methylethyl]-2-hydroxy-2-(3-chlorophenyl)ethanamine]
Maximum Inhibition (dose; mg/kg p.o.) ([1]; dose 3 mg/kg p.o.): 100% (3)
ED50 [1, 4]: 0.03 mg/kg p.o.

CN1C(C(=O)Nc2ccccn2)=C(O)c2ccccc2S1(=O)=O [piroxicam, reference compound]
percentage area of antral damage ([3]; female, random hooded, rat, in vivo, sc, 60 mg/kg, 6 h): 21±3%

C[C@H](Cc1ccc2c(c1)OC(C(=O)O)(C(=O)O)O2)NC[C@@H](O)c1cccc(Cl)c1 [(R,S)-5-(2-((2-(3-chlorophenyl)-2-hydroxyethyl)amino)propyl)-1,3-benzodioxole-2,2-dicarboxylic acid]
Maximum Inhibition (dose; mg/kg p.o.) ([1]; dose 1 mg/kg p.o.): 64% (1)
ED50 [1, 4]: 0.6 mg/kg p.o.

COC(=O)COc1ccc(C[C@@H](C)NC[C@@H](O)c2cccc(Cl)c2)cc1 [(S,R)-N-[2-(4-carbomethoxymethoxyphenyl)-1-methylethyl]-2-hydroxy-2-(3-chlorophenyl)ethanamine]
Maximum Inhibition (dose; mg/kg p.o.) ([1]; dose 3 mg/kg p.o.): 88% (3)
ED50 [1, 4]: 0.5 mg/kg p.o.

C[C@@H](Cc1ccc(OCC(=O)O)cc1)NC[C@@H](O)c1cccc(Cl)c1 [(S,S)-N-[2-(4-carboxymethoxyphenyl)-1-methylethyl]-2-hydroxy-2-(3-chlorophenyl)ethanamine]
Maximum Inhibition (dose; mg/kg p.o.) ([1]; dose 3 mg/kg p.o.): 97% (3)
ED50 [1, 4]: 0.8 mg/kg p.o.

COc1ccc2c(c1)c(CC(=O)O)c(C)n2C(=O)c1ccc(Cl)cc1 [indomethacin, reference compound]
percentage area of damage (antral) ([1]; subcutaneous dose of 60 mg/kg, rat): 19±5%

— patent publication US6696486B1, “Medical use for atypical β-adrenoceptor agonists” (Glaxo Group Limited, priority 1992, dated 2004)
